Measurements from the NIST ThermoML archive (doi:10.1016/j.fluid.2015.07.030).
± gives the expanded uncertainty stated by the source.

Test: refractive index (other wavelength) (dimensionless); xn = mol fraction of the nth substance listed
Settings: 95.99 kPa, Liquid, Standard Abbe refractometry

OCCOCCOCCO [triethylene glycol] + O
refractive index
Settings	Wavelength=404.7 nm	Wavelength=435.8 nm	Wavelength=486.1 nm	Wavelength=546.1 nm	Wavelength=587.6 nm	Wavelength=589.3 nm	Wavelength=632.8 nm	Wavelength=644 nm	Wavelength=706.5 nm
293.15 K, x2 = 0	1.46928 ± 0.00033	1.46569 ± 0.00033	1.46151 ± 0.00033	1.45803 ± 0.00033	1.45619 ± 0.00033	1.45612 ± 0.00033	1.45455 ± 0.00033	1.4542 ± 0.00033	1.45248 ± 0.00033
293.15 K, x2 = 0.1056	1.46776 ± 0.00033	1.46418 ± 0.00033	1.46003 ± 0.00033	1.45656 ± 0.00033	1.45474 ± 0.00033	1.45467 ± 0.00033	1.45311 ± 0.00033	1.45275 ± 0.00033	1.45102 ± 0.00033
293.15 K, x2 = 0.2069	1.46585 ± 0.00032	1.46229 ± 0.00032	1.45817 ± 0.00032	1.45473 ± 0.00032	1.45293 ± 0.00032	1.45286 ± 0.00032	1.45131 ± 0.00032	1.45095 ± 0.00032	1.44922 ± 0.00032
293.15 K, x2 = 0.3104	1.46244 ± 0.00032	1.45892 ± 0.00032	1.45478 ± 0.00032	1.45137 ± 0.00032	1.44957 ± 0.00032	1.4495 ± 0.00032	1.44796 ± 0.00032	1.4476 ± 0.00032	1.44588 ± 0.00032
293.15 K, x2 = 0.4844	1.45861 ± 0.00032	1.45514 ± 0.00032	1.45102 ± 0.00032	1.44764 ± 0.00032	1.44586 ± 0.00032	1.4458 ± 0.00032	1.44426 ± 0.00032	1.44391 ± 0.00032	1.44221 ± 0.00032
293.15 K, x2 = 0.5016	1.45756 ± 0.00032	1.45412 ± 0.00032	1.45 ± 0.00032	1.44663 ± 0.00032	1.44485 ± 0.00032	1.44479 ± 0.00032	1.44326 ± 0.00032	1.44291 ± 0.00032	1.44121 ± 0.00032
293.15 K, x2 = 0.5952	1.45069 ± 0.00032	1.44731 ± 0.00032	1.44328 ± 0.00032	1.43997 ± 0.00032	1.4382 ± 0.00032	1.43814 ± 0.00032	1.43663 ± 0.00032	1.43669 ± 0.00032	1.4346 ± 0.00032
293.15 K, x2 = 0.6016	1.45072 ± 0.00032	1.44734 ± 0.00032	1.44332 ± 0.00032	1.44002 ± 0.00032	1.43827 ± 0.00032	1.43821 ± 0.00032	1.4367 ± 0.00032	1.43635 ± 0.00032	1.43464 ± 0.00032
293.15 K, x2 = 0.6788	1.44395 ± 0.00032	1.4406 ± 0.00032	1.4367 ± 0.00032	1.43344 ± 0.00032	1.43171 ± 0.00032	1.43165 ± 0.00032	1.4301 ± 0.00032	1.42981 ± 0.00032	1.42813 ± 0.00032
293.15 K, x2 = 0.7835	1.4342 ± 0.00032	1.43091 ± 0.00032	1.42716 ± 0.00032	1.42397 ± 0.00032	1.4223 ± 0.00032	1.42224 ± 0.00032	1.42078 ± 0.00032	1.42043 ± 0.00032	1.41874 ± 0.00032
293.15 K, x2 = 0.8184	1.42884 ± 0.00032	1.42558 ± 0.00032	1.42185 ± 0.00032	1.41872 ± 0.00032	1.41706 ± 0.00032	1.417 ± 0.00032	1.41555 ± 0.00032	1.4152 ± 0.00032	1.41353 ± 0.00032
293.15 K, x2 = 0.8473	1.42267 ± 0.00032	1.41949 ± 0.00032	1.41582 ± 0.00032	1.41276 ± 0.00032	1.41114 ± 0.00032	1.41108 ± 0.00032	1.40964 ± 0.00032	1.4093 ± 0.00032	1.40762 ± 0.00032
293.15 K, x2 = 0.8719	1.41529 ± 0.00032	1.41214 ± 0.00032	1.40852 ± 0.00032	1.40547 ± 0.00032	1.40386 ± 0.00032	1.4038 ± 0.00032	1.40238 ± 0.00032	1.40204 ± 0.00032	1.40038 ± 0.00032
293.15 K, x2 = 0.8926	1.40703 ± 0.00032	1.40391 ± 0.00032	1.40033 ± 0.00032	1.39734 ± 0.00032	1.39576 ± 0.00032	1.3957 ± 0.00032	1.3943 ± 0.00032	1.39396 ± 0.00032	1.39232 ± 0.00032
293.15 K, x2 = 0.9106	1.40148 ± 0.00032	1.39844 ± 0.00032	1.39495 ± 0.00032	1.392 ± 0.00032	1.39044 ± 0.00032	1.39038 ± 0.00032	1.38899 ± 0.00032	1.38865 ± 0.00032	1.387 ± 0.00032
293.15 K, x2 = 0.9254	1.39081 ± 0.00032	1.38783 ± 0.00032	1.38446 ± 0.00032	1.38156 ± 0.00032	1.38004 ± 0.00032	1.37998 ± 0.00032	1.3786 ± 0.00032	1.37827 ± 0.00032	1.37665 ± 0.00032
293.15 K, x2 = 0.9303	1.39206 ± 0.00031	1.38905 ± 0.00031	1.38562 ± 0.00031	1.38273 ± 0.00031	1.3812 ± 0.00031	1.38114 ± 0.00031	1.37976 ± 0.00031	1.37942 ± 0.00031	1.37778 ± 0.00031
293.15 K, x2 = 0.9391	1.38808 ± 0.00031	1.38514 ± 0.00031	1.38176 ± 0.00031	1.37891 ± 0.00031	1.37736 ± 0.00031	1.37731 ± 0.00031	1.37592 ± 0.00031	1.37559 ± 0.00031	1.37396 ± 0.00031
293.15 K, x2 = 0.951	1.38101 ± 0.00031	1.37811 ± 0.00031	1.37479 ± 0.00031	1.37198 ± 0.00031	1.37045 ± 0.00031	1.37039 ± 0.00031	1.36903 ± 0.00031	1.36871 ± 0.00031	1.36871 ± 0.00032
293.15 K, x2 = 0.9599	1.37477 ± 0.00031	1.37194 ± 0.00031	1.36866 ± 0.00031	1.36589 ± 0.00031	1.36436 ± 0.00031	1.36431 ± 0.00031	1.36296 ± 0.00031	1.36264 ± 0.00031	1.36106 ± 0.00032
293.15 K, x2 = 0.9708	1.36673 ± 0.00031	1.36396 ± 0.00031	1.36077 ± 0.00031	1.35803 ± 0.00031	1.35657 ± 0.00031	1.35652 ± 0.00031	1.3552 ± 0.00031	1.35488 ± 0.00031	1.35328 ± 0.00031
293.15 K, x2 = 0.979	1.36151 ± 0.00031	1.35879 ± 0.00031	1.35566 ± 0.00031	1.35294 ± 0.00031	1.35147 ± 0.00031	1.35142 ± 0.00031	1.35011 ± 0.00031	1.3498 ± 0.00031	1.34824 ± 0.00031
293.15 K, x2 = 0.9867	1.35527 ± 0.00031	1.35259 ± 0.00031	1.34949 ± 0.00031	1.34676 ± 0.00031	1.34532 ± 0.00031	1.34526 ± 0.00031	1.34398 ± 0.00031	1.34367 ± 0.00031	1.3421 ± 0.00031
293.15 K, x2 = 0.9936	1.34883 ± 0.00031	1.34624 ± 0.00031	1.34314 ± 0.00031	1.34052 ± 0.00032	1.33907 ± 0.00031	1.33902 ± 0.00031	1.33774 ± 0.00031	1.33744 ± 0.00031	1.33593 ± 0.00031
298.15 K, x2 = 0	1.46749 ± 0.00033	1.4639 ± 0.00033	1.45975 ± 0.00033	–	–	–	–	–	–
298.15 K, x2 = 0.1056	1.46604 ± 0.00033	1.46248 ± 0.00033	1.45834 ± 0.00033	–	–	–	–	–	–
298.15 K, x2 = 0.2069	1.46428 ± 0.00032	1.46074 ± 0.00032	1.45661 ± 0.00032	–	–	–	–	–	–
298.15 K, x2 = 0.3104	1.46096 ± 0.00032	1.45745 ± 0.00032	1.45333 ± 0.00032	–	–	–	–	–	–
298.15 K, x2 = 0.4844	1.45699 ± 0.00032	1.45354 ± 0.00032	1.44943 ± 0.00032	–	–	–	–	–	–
298.15 K, x2 = 0.5016	1.45596 ± 0.00032	1.45252 ± 0.00032	–	–	–	–	–	–	–
298.15 K, x2 = 0.5952	1.44911 ± 0.00032	1.44572 ± 0.00032	–	–	–	–	–	–	–
298.15 K, x2 = 0.6016	1.44913 ± 0.00032	1.44575 ± 0.00032	–	–	–	–	–	–	–
298.15 K, x2 = 0.6788	1.44244 ± 0.00032	1.43909 ± 0.00032	–	–	–	–	–	–	–
298.15 K, x2 = 0.7835	1.43274 ± 0.00032	1.42946 ± 0.00032	–	–	–	–	–	–	–
298.15 K, x2 = 0.8184	1.42742 ± 0.00032	1.42417 ± 0.00032	–	–	–	–	–	–	–
298.15 K, x2 = 0.8473	1.42101 ± 0.00032	1.41783 ± 0.00032	–	–	–	–	–	–	–
298.15 K, x2 = 0.8719	1.41326 ± 0.00032	1.41082 ± 0.00032	–	–	–	–	–	–	–
298.15 K, x2 = 0.8926	1.40601 ± 0.00032	1.40293 ± 0.00032	–	–	–	–	–	–	–
298.15 K, x2 = 0.9106	1.40032 ± 0.00032	1.39727 ± 0.00032	–	–	–	–	–	–	–
298.15 K, x2 = 0.9254	1.38959 ± 0.00032	1.38664 ± 0.00032	–	–	–	–	–	–	–
298.15 K, x2 = 0.9303	1.39111 ± 0.00031	1.38813 ± 0.00031	–	–	–	–	–	–	–
298.15 K, x2 = 0.9391	1.38696 ± 0.00032	1.38402 ± 0.00032	–	–	–	–	–	–	–
298.15 K, x2 = 0.951	1.38004 ± 0.00031	1.37716 ± 0.00031	–	–	–	–	–	–	–
298.15 K, x2 = 0.9599	1.374 ± 0.00031	1.37117 ± 0.00031	–	–	–	–	–	–	–
298.15 K, x2 = 0.9708	1.36592 ± 0.00031	1.36317 ± 0.00031	–	–	–	–	–	–	–
298.15 K, x2 = 0.979	1.36072 ± 0.00031	1.35801 ± 0.00031	–	–	–	–	–	–	–
298.15 K, x2 = 0.9867	1.35466 ± 0.00031	1.35198 ± 0.00031	–	–	–	–	–	–	–
298.15 K, x2 = 0.9936	1.34824 ± 0.00031	1.34565 ± 0.00031	–	–	–	–	–	–	–
